From patent publication US5571799A, “(2'-5') oligoadenylate analogues useful as inhibitors of host-v5.-graft response” (Basco, Ltd., priority 1994, dated 1996)
Entries after “also recorded” stand apart in the source; their conditions may differ. Marks after values point to notes of the source that are not given here.

Experiments:
T-suppressors [1] = assay: T-suppressors in monkeys after kidney transplantation; type: in vivo, Macaque Rh. monkeys; settings: for T-suppress: 50 μg/kg IV, 2 days pre-op. 44
Procedure: (§1) FLOW CYTOFLUOROGRAFIC ANALYSIS OF LYMPHOCYTE SUBSETS
(§2) Blood samples (100 μl of whole blood) were placed into a 12×17 tube. To these cells 20 μl of purified monoclonal antibodies were added with specificity for human cytotoxic/suppressor cells anti-Leu-2a (CD8), human helper/inducer anti-Leu-3a (CD4) and FITC conjugated monoclonal antibodies with specificity for natural killer cells-anti-Leu11c (CD16) (Becton Dickinson, San Jose). After 30 minutes incubation on ice, the cells were washed once and 20 μl of goat-antimouse chain phycoerythrin (Sigma P1286) conjugate were added to the tube with anti-Leu-2a and anti-Leu-3a monoclonal antibodies.
(§3) After erythrocyte lysing with FACS lysing solution (Becton Dickinson, San Jose) the cells were analyzed on FACScan flow cytometer (Becton Dickinson, San Jose) with scatter gate set on lymphocyte fraction.
(§4) The experiments were performed on 4 year-old Macaque Rh. monkeys. Each cohort consisted of 3 animals. […] The results of the experiments were evaluated clinically: by the presence or absence of urination from the ureterocutaneostoma.
(§5) After intravenous anesthesia with Ketalar®, an extraperitoneal access to the left kidney was performed through layer by layer cuts to the left lumbar region. The kidney was excised from the surrounding tissues. A clamp was applied to the vessel limb; the artery, the vein and the ureter each were prepared for anastomosis separately. The kidney was excised and transferred for hypothermal conservation in Collins' solution.
(§6) The donor kidney was transplanted into the recipient. […] anastomosis was performed: the graft arteries and veins attached to the appropriate recipient kidney vessels through plastic tubes. The kidney having been resuscitated by in blood flow, acquired the normal color and turgor. Additional hemostasis in the wound was performed. Ureterocutaneostomy was performed, which was followed by applying layer-upon-layer sutures on the wound and its aseptic dressing.
(§7) The monkeys were narcotized by means of the intravenous anesthesia with Ketalar® and subjected to medial laparotomy from the xiphoid down to the pubic joint. Access to the left Kidney was made extraperitoneally. The kidney was teased from the surrounding tissues. A clamp was put on the vessel limb; the artery, the vein and the ureter were dressed separately; the kidney was cut and transferred for hypothermal conservation in Collins' solution.
(§8) The internal iliac artery and the external iliac vein were extracted extra-peritoneally, immobilized and prepared for anastomosis. The donor kidney was transferred to the recipient. Vessel anastomosis was performed: the graft arteries were anastomosed with the internal iliac artery according to the end-to-end method and the graft veins were anastomosed with the external iliac vein according to the end-to-side method. The kidney having been engaged in blood flow, acquired a normal color and turgor. Bleeding on the line of the arterial anastomosis was stopped by making additional sutures. Ureterocutaneostomy was performed. The abdominal cavity was lavaged with the solution of disodium carbenicillin. Layer-upon-layer sutures on the wound were applied. Aseptic dressing was performed.
(§9) During our experiments we have divided monkeys into two groups, three monkeys to each group. For the first group (2'-5')A2 Ar-epoxy was administered intravenously at concentration of 50 μg/kg two days before the operation and at the second, sixth, and twelfth day after the operation and then every sixth day. […] After transplantation kidney functions were restored within 10 hours.
(§10) The administration schedule of (2'-5')A2 Ar-epoxy was modified slightly for the second group of monkeys. The preparation was injected two days before the operation and every other day at a concentration of 50 μg/kg during the entire post-transplantation period. […] The number of T-helpers dropped correspondingly from 37% to 7%. […] During the entire postoperative period, this activity tendency continues.

lymphocytes = assay: Lymphocyte blast-transformation reaction in operated rabbits; type: in vivo, chinchilla rabbits
Procedure: Immunosuppression was performed by IV injection of (2'-5')A2 Ar-epoxy at a dose of 5 μg per 1.0 kg body weight at 0.1 ml of the physiologic solution daily until the conclusion of the experiment. During the first two weeks of the post-operative period, blood was taken for immunological analysis; BTR with PHA and Concanavalin A were tested.
Lymphocyte Blast-Transformation Reaction in Operated Rabbits

T-helpers [2] = assay: Immune system of monkeys: T-helpers, flow cytofluorografic analysis; type: in vivo, Macaque Rh. monkeys
Procedure: (§11) The experiments were performed on 4 year-old Macaque Rh. monkeys. The levels of the principal subpopulations of T-lymphocytes, IgA, IgG, IgM and the amount of α- and γ-interferon and interleukin II after administration (2'-5')olygoadenylate and its analogies at the concentration of 50 and 25 μg/kg of the body weight was investigated.
as §1, §2, §3

T-helpers [3] = assay: T-helpers in monkeys after kidney transplantation; type: in vivo, Macaque Rh. monkeys; settings: for T-helpers: 50 μg/kg IV, 2 days pre-op. 30
Procedure: as §1, §2, §3, §4, §5, §6, §7, §8, §9, §10

T-suppressors [4] = assay: Immune system of monkeys: T-suppressors, flow cytofluorografic analysis; type: in vivo, Macaque Rh. monkeys; settings: for T-suppressor: single IV 25 μg/kg; for T-suppressors: single IV 50 μg/kg
Procedure: as §11, with “Immunosuppressive activity of the prototype 2'-5'A3 and two analogues (2'-5')A2 Ar-epoxy and (2'-5')A2 A^l-epoxy were investigated in monkeys. The experiments” for “The experiments”
as §1, §2, §3

**Q.** What does the source list for “Adenylyl (2'-5')adenylyl (2'-5')-9-(2,3-anhydro-β-D-ribofuranosyl) adenine disodium salt [(2'-5')A2 Ar-epoxy]”?
**A.** T-suppress (T-suppressors [1]; day 1 post-op.): 40.6%; T-suppress (T-suppressors [1]; day 5 post-op.): 44%; T-suppress (T-suppressors [1]; day 8 post-op.): 47%; T-suppress (T-suppressors [1]; day 13 post-op.): 47.7%; T-suppress (T-suppressors [1]; day 18 post-op.): 57.5%; effect on T-suppressors in transplanted animals, in words (T-suppressors [1]; post-transplantation, 50 μg/kg, disodium salt): stimulates the number of T-suppressor cells in transplanted monkeys; also recorded: stimulates somewhat the number of T-suppressors; quantity of T-suppressors (T-suppressors [1]; second group, 50 μg/kg every other day, 7 days after surgery, presurgical 44%): 49%; DNA synthesis by [^3 H]-thymidine incorporated (lymphocytes; Con A, Group 1, 2 weeks post-op., pre-op. 12.6): 1.6 cpm(×10^3); DNA synthesis by [^3 H]-thymidine incorporated (lymphocytes; Con A, Group 1, 48 h. post-op., pre-op. 12.6): 1.6 cpm(×10^3); DNA synthesis by [^3 H]-thymidine incorporated (lymphocytes; Con A, Group 2, 2 weeks post-op., pre-op. 11.0): 5.0 cpm(×10^3); DNA synthesis by [^3 H]-thymidine incorporated (lymphocytes; Con A, Group 2, 48 h. post-op., pre-op. 11.0): 4.4 cpm(×10^3); DNA synthesis by [^3 H]-thymidine incorporated (lymphocytes; PHA 10, Group 1, 2 weeks post-op., pre-op. 6.0): 1.5 cpm(×10^3); DNA synthesis by [^3 H]-thymidine incorporated (lymphocytes; PHA 10, Group 1, 48 h. post-op., pre-op. 6.0): 0.9 cpm(×10^3); DNA synthesis by [^3 H]-thymidine incorporated (lymphocytes; PHA 10, Group 2, 2 weeks post-op., pre-op. 7.0): 2.1 cpm(×10^3); DNA synthesis by [^3 H]-thymidine incorporated (lymphocytes; PHA 10, Group 2, 48 h. post-op., pre-op. 7.0): 2.4 cpm(×10^3); DNA synthesis by [^3 H]-thymidine incorporated (lymphocytes; PHA 20, Group 1, 2 weeks post-op., pre-op. 2.1): 1.6 cpm(×10^3); DNA synthesis by [^3 H]-thymidine incorporated (lymphocytes; PHA 20, Group 1, 48 h. post-op., pre-op. 2.1): 1.2 cpm(×10^3); DNA synthesis by [^3 H]-thymidine incorporated (lymphocytes; PHA 20, Group 2, 48 h. post-op., pre-op. 1.4): 5.5 cpm(×10^3); DNA synthesis by [^3 H]-thymidine incorporated (lymphocytes; Spontaneous, Group 1, 48 h. post-op., pre-op. 0.648): 0.306 cpm(×10^3); DNA synthesis by [^3 H]-thymidine incorporated (lymphocytes; Spontaneous, Group 2, 48 h. post-op., pre-op. 0.597): 0.274 cpm(×10^3); suppression of lymphocyte blast-transformation stimulated with Con A (lymphocytes; post-transplanted rabbits, IV 5 μg/kg): ~10 fold; lymphocyte blast-transformation reaction, in words (lymphocytes; two weeks following the operation): inhibition of the lymphocyte blast-transformation reaction; T-helpers (T-helpers [2]; single IV 25 μg/kg, day 0 (baseline)): 16%; T-helpers (T-helpers [2]; single IV 25 μg/kg, day 1): 20%; T-helpers (T-helpers [2]; single IV 25 μg/kg, day 2): 10%; T-helpers (T-helpers [2]; single IV 25 μg/kg, day 4): 4%; T-helpers (T-helpers [2]; single IV 25 μg/kg, day 8): 5.3%; T-helpers (T-helpers [2]; single IV 25 μg/kg, day 12): 7%; T-helpers (T-helpers [2]; single IV 25 μg/kg, day 21): 23%; T-helpers (T-helpers [2]; single IV 50 μg/kg, day 0 (baseline)): 30%; T-helpers (T-helpers [2]; single IV 50 μg/kg, day 1): 29%; T-helpers (T-helpers [2]; single IV 50 μg/kg, day 2): 15%; T-helpers (T-helpers [2]; single IV 50 μg/kg, day 4): 1.2%; T-helpers (T-helpers [2]; single IV 50 μg/kg, day 8): 5.0%; T-helpers (T-helpers [2]; single IV 50 μg/kg, day 12): 7.0%; T-helpers (T-helpers [2]; single IV 50 μg/kg, day 21): 30.6%; T-helpers (T-helpers [3]; day 1 post-op.): 8%; T-helpers (T-helpers [3]; day 5 post-op.): 39.9%; T-helpers (T-helpers [3]; day 8 post-op.): 32%; T-helpers (T-helpers [3]; day 13 post-op.): 34.7%; T-helpers (T-helpers [3]; day 18 post-op.): 14.5%; number of T-helpers (T-helpers [3]; second group, 50 μg/kg every other day, 7 days after surgery, from 37%): 7%; effect on T-suppressors, in words (T-suppressors [4]; 25 and 50 μg/kg IV): suppresses the number of T-suppressor cells; T-suppressor (T-suppressors [4]; day 0 (baseline)): 47%; T-suppressor (T-suppressors [4]; day 1): 40%; T-suppressor (T-suppressors [4]; day 2): 21%; T-suppressor (T-suppressors [4]; day 4): 11%; T-suppressor (T-suppressors [4]; day 8): 11%; T-suppressor (T-suppressors [4]; day 12): 14%; T-suppressor (T-suppressors [4]; day 21): 46%; T-suppressors (T-suppressors [4]; day 0 (baseline)): 43%; T-suppressors (T-suppressors [4]; day 1): 31%; T-suppressors (T-suppressors [4]; day 2): 19%; T-suppressors (T-suppressors [4]; day 4): 12%; T-suppressors (T-suppressors [4]; day 8): 7.4%; T-suppressors (T-suppressors [4]; day 12): 13%; T-suppressors (T-suppressors [4]; day 21): 44%
